Common to all, as to type: functional
Assay [1] is described as follows: Antiinflammatory activity in […] cells assessed as reduction in LPS-induced TNF-alpha release at 10 uM pre incubated for 1 hr followed by LPS stimulation and measured after 30 mins by ELISA. A general note: ELISA stands for enzyme-linked immunosorbent assay.
The nature of assay [2]: Antiinflammatory activity in […] cells assessed as reduction in LPS-induced NOX release at 10 uM pre incubated for 1 hr followed by LPS stimulation and measured after 30 mins by ELISA.
The nature of assay [3]: Antiinflammatory activity in […] cells assessed as reduction in LPS-induced IL-6 release at 10 uM pre incubated for 1 hr followed by LPS stimulation and measured after 30 mins by ELISA.
A further assay concerns Escherichia coli. The experiment in a line: Antibacterial activity against Escherichia coli ATCC 12701 assessed as bacterial clearance incubated for 6 to 24 hrs by microbroth dilution method. The conditions noted are these: time 6-24 hrs. (In general: Broth dilution looks for growth in wells or tubes with falling amounts of substance.)
Another assay has as its system Staphylococcus aureus. The experiment in a line: Antibacterial activity against Staphylococcus aureus ATCC 6538 assessed as bacterial clearance incubated for 6 to 24 hrs by microbroth dilution method. The conditions noted are these: time 6-24 hrs.
For the next assay, the system named is Pseudomonas aeruginosa. The assay can be described thus: Antibacterial activity against Pseudomonas aeruginosa ATCC 10145 assessed as bacterial clearance incubated for 6 to 24 hrs by microbroth dilution method. The conditions noted are these: time 6-24 hrs.

In brackets after ≈: the same amount, converted by molar mass.

As a reminder, the inhibition is the drop in the measured response relative to a control, in per cent. As a reminder, the MIC80 is an inhibitory concentration at the 80% level, which refers to growth in some studies and to a panel of isolates in others.

Consider `NCCOCCOCCNc1nc(NCC2CCCO2)nc(-c2ccc(OC(F)(F)F)cc2)n1` (centres undefined), for which the inhibition at 10 µM was found to be 10.9% in assay [1], 38.4% in assay [2] and 16.7% in assay [3].
As to `COc1ccc(-c2nc(NCCOCCOCCN)nc(NCC3CCCO3)n2)cc1` (centres undefined), the inhibition at 10 µM in assay [1] amounted to 10.1%; in assay [2], 38.4%; in assay [3], 50.1%.
As to `CC(C)(C)c1ccc(-c2nc(NCCOCCOCCOCCN)nc(NCC3CCCO3)n2)cc1` (centres undefined), the figures for the inhibition at 10 µM in assay [1], in assay [2] and in assay [3] were 13.4%, 19.5% and 22.2%, respectively.
On to `CC(C)(C)c1ccc(-c2nc(NCCOCCOCCN)nc(NCCc3ccccc3)n2)cc1`, for which the results for the inhibition at 10 µM in assay [1], in assay [2] and in assay [3] were 25.3%, 23% and 40.2%, respectively.
For the compound GENTAMICIN, the values for the MIC=>80 in the assay on Escherichia coli, with Staphylococcus aureus and in the assay on Pseudomonas aeruginosa were 0.99 µg/mL, 0.5 µg/mL and 7.94 µg/mL, respectively.
For the compound `NCCOCCOCCNc1nc(NCC2CCCO2)nc(-c2ccc(Cl)cc2)n1` (centres undefined), the inhibition at 10 µM in assay [1] was 25.3%; in assay [2] it was 30.7%; in assay [3], 33.3%.
Take `NCCOCCOCCNc1nc(NCC2CCCO2)nc(-c2ccccc2)n1` (centres undefined): the inhibition at 10 µM stood at 10.6% in assay [1], 30.7% in assay [2] and 26.7% in assay [3].
For `CC(C)(C)c1ccc(-c2nc(NCCOCCOCCN)nc(NCc3cccc(F)c3)n2)cc1` the same measures were 35.6%, 38.5% and 46.7%.
With `Cc1ccc(-c2nc(NCCOCCOCCN)nc(NCC3CCCO3)n2)cc1` (centres undefined), the values for the inhibition at 10 µM in assay [1], in assay [2] and in assay [3] were 50.1%, 40% and 50%, respectively.
In the case of `CC(C)(C)c1ccc(-c2nc(NCCCOCCOCCCN)nc(NCC3CCCO3)n2)cc1` (centres undefined), the figures for the inhibition at 10 µM in assay [1], in assay [2] and in assay [3] were 13.8%, 19.1% and 22.3%, respectively.
For `CC(C)(C)c1ccc(-c2nc(NCCOCCOCCN)nc(NCc3ccc(Cl)cc3)n2)cc1`, in that order: 15.2%, 38.4% and 50%.
As to `Cc1cccc(CNc2nc(NCCOCCOCCN)nc(-c3ccc(C(C)(C)C)cc3)n2)c1`, the inhibition at 10 µM in assay [1] amounted to 25.3%; in assay [2], 41.6%; in assay [3], 56.7%.
Consider `CC(C)(C)c1ccc(-c2nc(NCCOCCOCCN)nc(NCc3cccc(Cl)c3)n2)cc1`, for which the inhibition at 10 µM stood at 50.1% in assay [1], 41.5% in assay [2] and 43.3% in assay [3].
For `Cc1ccc(CNc2nc(NCCOCCOCCN)nc(-c3ccc(C(C)(C)C)cc3)n2)cc1` the same measures were 35.9%, 15.3% and 33.3%.
For `CC(C)(C)c1ccc(-c2nc(NCCOCCOCCN)nc(NCC3CCCCC3)n2)cc1` the same measures were 36.4%, 21.5% and 24.7%.
In the case of `Cc1onc(-c2ccccc2)c1C(=O)N[C@@H]1C(=O)N2[C@@H]1SC(C)(C)[C@@H]2C(=O)O` [OXACILLIN], the MIC80 in the assay with Escherichia coli was 0.25 µg/mL (≈ 0.623 µM); in the assay with Staphylococcus aureus it was 0.06 µg/mL (≈ 0.149 µM); in the assay on Pseudomonas aeruginosa, 1.98 µg/mL (≈ 4.93 µM).
Turning to `C=CCNc1nc(NCCOCCOCCN)nc(-c2ccc(C(C)(C)C)cc2)n1`, the inhibition at 10 µM in assay [1] is 23.4%; in assay [2] it was 29.2%; in assay [3], 32.6%.
For `CC(C)(C)c1ccc(-c2nc(NCCOCCOCCN)nc(NCc3ccco3)n2)cc1`, in that order: 15.6%, 44.7% and 40.1%.
For `CC(C)(C)c1ccc(Nc2nc(NCCOCCOCCN)nc(-c3ccc(C(C)(C)C)cc3)n2)cc1` the same measures were 23.2%, 29.2% and 32.8%.
As for `CC(C)(C)c1ccc(-c2nc(NCCOCCOCCN)nc(Nc3ccc(Cl)cc3)n2)cc1`, the inhibition at 10 µM in assay [1] came to 33.7%; in assay [2], 34.2%; in assay [3], 32.5%.
As for `CC(C)(C)c1ccc(-c2nc(NCCOCCOCCN)nc(NCc3ccc(F)cc3)n2)cc1`, the results for the inhibition at 10 µM in assay [1], in assay [2] and in assay [3] were 30.1%, 46.1% and 53.3%, respectively.
For `CC(C)(C)c1ccc(-c2nc(NCCOCCN)nc(NCC3CCCO3)n2)cc1` (centres undefined) the same measures were 13.3%, 33.1% and 22.1%.
For `NCCOCCOCCNc1nc(NCC2CCCO2)nc(-c2ccc(C(F)(F)F)cc2)n1` (centres undefined), in that order: 10.1%, 46.1% and 23.4%.
Regarding `NCCOCCOCCNc1nc(NCC2CCCO2)nc(-c2ccc(F)cc2)n1` (centres undefined), the figures for the inhibition at 10 µM in assay [1], in assay [2] and in assay [3] were 15.1%, 23% and 33.4%, respectively.
Take `CC(C)(C)c1ccc(-c2nc(NCCOCCOCCN)nc(NCc3ccccc3)n2)cc1`: the inhibition at 10 µM in assay [1] worked out at 10.7%; in assay [2], 38.5%; in assay [3] it was 50%.
For the compound `CC(C)(C)c1ccc(CNc2nc(NCCOCCOCCN)nc(-c3ccc(C(C)(C)C)cc3)n2)cc1`, the inhibition at 10 µM in assay [1] came to 55.2%; in assay [2], 38.4%; in assay [3] it was 46.7%.
For `CC(C)(C)c1ccc(-c2nc(NCCOCCOCCN)nc(NCC3CCCCO3)n2)cc1` (centres undefined), in that order: 10.4%, 46.1% and 56.7%.
`CC1(C)S[C@@H]2[C@H](NC(=O)[C@H](N)c3ccccc3)C(=O)N2[C@H]1C(=O)O` [AMPICILLIN]: the MIC80 in the assay on Escherichia coli was determined as 1.98 µg/mL (≈ 5.67 µM); in the assay with Staphylococcus aureus, 0.25 µg/mL (≈ 0.715 µM); with Pseudomonas aeruginosa it was 0.99 µg/mL (≈ 2.83 µM).

The values above are taken from ChEMBL document CHEMBL5038645, “Discovery of Mycobacterium tuberculosis Rv3364c-Derived Small Molecules as Potential Therapeutic Agents to Target SNX9 for Sepsis” (J Med Chem, 2022).
